US20080234130A1, “Compositions providing tolerance to multiple herbicides and methods of use thereof” (priority 2005, published 2008)

Tests used:
GAT-HRA soybeans = assay: Postemergence greenhouse spray of soybeans, visual injury (Table 11); conditions: 8960 g/ha
Protocol: (§1) Young regenerated transgenic plants were sprayed with 1× glyphosate (1× rate of glyphosate is 1120 g/ha of glyphosate isopropylamine) to cull segregants. Four replications were performed for each treatment. Plants were then treated with various herbicides, including glyphosate and ALS-inhibitor herbicides.
(§2) Six soybean seeds from each variety to be assayed were planted 1 cm deep in 5.5 (13.97 cm) inch square plastic container of a synthetic growth medium. […] When possible, containers were thinned to two uniform plants. Non-transgenic lines were thinned to two uniform plants per container.
(§3) Results are expressed below in Table 11 as the mean of four replications.

[1] = system: non-transgenic control soybeans; assay: as above; conditions: 8960 g/ha
Protocol: as §1, §2, §3

[2] = system: GAT-HRA transgenic cotton plants; assay: Greenhouse over the top herbicide spray of cotton; assay type: in vivo, Gossypium hirsutum; conditions: glyphosate over the top at 4-6 leaf stage, 1.5 lb acid equivalent per acre; 14 days after application
Source text: (§4) Transformed cotton plants were rooted and then transferred to soil for further growth. Plants were then subjected to herbicide spray treatments in a greenhouse. […] Untransformed Coker 312 control plants were dead 2 weeks after glyphosate application. […] Plants transformed with both GAT and HRA were further subjected to an “over the top” application of the sulfonylurea herbicide rimsulfuron at a rate of 16 g active ingredient/hectare. […] In further experiments 32 g ai/ha rimsulfuron were applied to the cotton.

[3] = system: untransformed Coker 312 cotton; assay: Greenhouse over the top herbicide spray of cotton; assay type: in vivo, Gossypium hirsutum; conditions: glyphosate over the top at 4-6 leaf stage, 1.5 lb acid equivalent per acre; 2 weeks after application
Source text: as §4

[4] = system: non-transformed GS3 embryos; assay: Glyphosate kill curve on culture media; assay type: cell-based, maize; conditions: about 40 days culture
Protocol: (§5) A glyphosate kill curve was established by testing non-transformed embryos response on media with different levels of glyphosate. GS3 embryos were isolated from an immature ear and placed onto media containing glyphosate at 0.0, 0.5, 1.0, and 2.0 mM. After about 40 days culture, the response of the embryos were observed and recorded. Similarly, infected GS3 embryos with the GAT construct were placed onto media containing glyphosate at 0.0, 0.5, 1.0, and 2.0 mM. After about 40 days culture, the response of the infected embryos were observed and recorded (FIG. 7).

[5] = system: infected GS3 embryos with the GAT construct; assay: Glyphosate selection of embryos infected with the GAT construct; assay type: cell-based, maize; conditions: media with 1.0 mM or 2.0 mM glyphosate, about 40 days culture
Protocol: as §5

[6] = system: non-glyphosate resistant Conyza (Welgevallen-paraquat resistant); assay: Control of hairy fleabane by glyphosate, metsulfuron-methyl and two additives (Table 24); assay type: in vivo, Conyza bonariensis
Protocol: This example included the same treatments as used in Example 11, except the treatments were carried out on a glyphosate sensitive biotype of Kleinskraalhans (Conyza bonariensis).
• Biotype: Non-glyphosate resistant Conyza (Welgevallen-paraquat resistant) • Growth Stage: 10-15 leaf stage • Conditions: Cool and sunny • Volume rate: 200 L ha^−1 • glyphosate (ROUNDUP): 360 g a.i. L^−1

[7] = system: parent elite stiff stalk inbred corn; assay: Postemergence effect of ALS herbicides, glyphosate and glufosinate (fresh weight, visual injury); conditions: 200 g/ha (glyphosate 3472 g ae/ha, glufosinate ammonium 1870 g/ha), mean of four replications
[8] = system: heterozygous GAT-HRA corn; assay: as above; conditions: 200 g/ha (glyphosate 3472 g ae/ha, glufosinate ammonium 1870 g/ha), mean of four replications
[9] = system: Fairview (Tulbagh) ryegrass resistant to glyphosate, paraquat, and ACCase-inhibitors; assay: Control of resistant ryegrass by glyphosate, metsulfuron-methyl and two additives (Table 25); assay type: in vivo; conditions: Trial 1: glyphosate (ROUNDUP) 0.5 L/ha
Protocol: This example was conducted on one of the most resistant ryegrass types in the world, ryegrass resistant to non-selective herbicides, e.g., Fairview (Tulbagh), which is resistant to glyphosate, paraquat, and ACCase-inhibitors. In this example, the addition of metsulfuron-methyl (BRUSH-OFF®) at 5 and 10 g ha^−1, with 1% ammonium sulfate-based adjuvant (ADD-UP®) to 0.5 L Roundup improved control by 44% (e.g., 50% to 94%).
• Biotype: Fairview (Tulbagh) resistant to glyphosate, paraquat, and ACCase-inhibitors. • Growth Stage: 10-15 leaf stage • Conditions: Cool and sunny • 15 Volume rate: 200 L ha^−1 • glyphosate (ROUNDUP): 360 g ai L^−1

[10] = system: non-glyphosate resistant ryegrass (70-04); assay: Control of ryegrass by glyphosate, metsulfuron-methyl and two additives (Table 23); assay type: in vivo; conditions: Trial 1: glyphosate (SCAT) 0.5 L/ha
Protocol: The example was conducted on non-glyphosate resistant ryegrass. As provided in Table 23, all treatments that included glyphosate [180 g a.i. L ha^−1 (0.5 L glyphosate (SCAT®))] plus metsulfuron-methyl (BRUSH-OFF®) (5 and 10 g ha^−1) gave 100% control of the ryegrass.
• Biotype: non-glyphosate resistant ryegrass (70-04) • Population profile: Rup 0.25 control (%) 6.25 • Rup 0.5 control (%) 81.25 • Rup 1.0 control (%) 93.75 • Growth Stage: 5-6 leaf stage • Conditions: hot and sunny • Volume rate: 200 L ha^−1

[11] = system: Fairview (Tulbagh) ryegrass resistant to glyphosate, paraquat, and ACCase-inhibitors; assay: Control of resistant ryegrass by glyphosate and representative SU's (Table 26); assay type: in vivo; conditions: Trial 2: glyphosate (SCAT) 6 L/ha; sprayed with 1% ADD-UP
Source text: In this example, four different SU's were applied together with glyphosate (SCAT®) on the resistant ryegrass. The results as to the best SU partner for glyphosate were inconclusive, but the average benefit of applying an SU with glyphosate on herbicide resistant ryegrass was 39% (e.g., 34% control with glyphosate (SCAT®) only and 57-83% control with glyphosate (SCAT®) plus metsulfuron-methyl (BRUSH-OFF®), chlorsulfuron (GLEAN®), or triasulfuron (LOGRAN®)).
• Biotype: Fairview (Tulbagh) resistant to glyphosate, paraquat, and ACCase-inhibitors. • Growth Stage: 4 leaf stage • Conditions: Cool and sunny • Volume rate: 200 L ha^−1 • All treatments sprayed with 1% ADD-UP

[12] = 2 weeks after treatment, 0% no injury, 100% plant death

O=C(O)CNCP(=O)(O)O [Glyphosate, N-phosphonomethylglycine]
% Visual Injury (GAT-HRA soybeans; Event # 59, Line # 21): 40%
% Visual Injury (GAT-HRA soybeans; Event # 59, Line # 28): 37%
% Visual Injury (GAT-HRA soybeans; Event # 59, mean): 38%
% Visual Injury (GAT-HRA soybeans; Event # 60, Line # 07): 19%
% Visual Injury (GAT-HRA soybeans; Event # 60, Line # 11): 11%
% Visual Injury (GAT-HRA soybeans; Event # 60, Line # 22): 11%
% Visual Injury (GAT-HRA soybeans; Event # 60, Line # 35): 9%
% Visual Injury (GAT-HRA soybeans; Event # 60, Line # 41): 13%
% Visual Injury (GAT-HRA soybeans; Event # 60, Line # 46): 20%
% Visual Injury (GAT-HRA soybeans; Event # 60, Line # 70): 9%
% Visual Injury (GAT-HRA soybeans; Event # 60, Line # 75): 14%
% Visual Injury (GAT-HRA soybeans; Event # 60, Line # 77): 19%
% Visual Injury (GAT-HRA soybeans; Event # 60, Line # 79): 18%
% Visual Injury (GAT-HRA soybeans; Event # 60, Line # 82): 20%
% Visual Injury (GAT-HRA soybeans; Event # 60, Line # 84): 22%
% Visual Injury (GAT-HRA soybeans; Event # 60, mean): 15%
% Visual Injury (GAT-HRA soybeans; Event # 61, Line # 02): 10%
% Visual Injury (GAT-HRA soybeans; Event # 61, Line # 02B): 10%
% Visual Injury (GAT-HRA soybeans; Event # 61, Line # 05): 11%
% Visual Injury (GAT-HRA soybeans; Event # 61, Line # 14): 10%
% Visual Injury (GAT-HRA soybeans; Event # 61, Line # 18): 10%
% Visual Injury (GAT-HRA soybeans; Event # 61, Line # 24): 60%
% Visual Injury (GAT-HRA soybeans; Event # 61, Line # 33): 84%
% Visual Injury (GAT-HRA soybeans; Event # 61, Line # 34): 23%
% Visual Injury (GAT-HRA soybeans; Event # 61, Line # 47): 15%
% Visual Injury (GAT-HRA soybeans; Event # 61, Line # 49): 9%
% Visual Injury (GAT-HRA soybeans; Event # 61, Line # 51): 10%
% Visual Injury (GAT-HRA soybeans; Event # 61, Line # 60): 16%
% Visual Injury (GAT-HRA soybeans; Event # 61, Line # 62): 6%
% Visual Injury (GAT-HRA soybeans; Event # 61, Line # 99): 10%
% Visual Injury (GAT-HRA soybeans; Event # 61, mean): 20%
% Visual Injury (GAT-HRA soybeans; Event # 64, Line # 41): 20%
% Visual Injury (GAT-HRA soybeans; Event # 64, Line # 47): 10%
% Visual Injury (GAT-HRA soybeans; Event # 64, mean): 14%
% Visual Injury ([1]; STS ®, Line # 25): 100%
% Visual Injury ([1]; STS ®, Line # 46): 100%
% Visual Injury ([1]; STS ®, mean): 100%
% Visual Injury ([1]; Wild Type, Line # 82): 100%
% Visual Injury ([1]; Wild Type, Line Jack): 100%
% Visual Injury ([1]; Wild Type, mean): 100%
GAT-HRA transgenic plants with no deleterious symptoms [2]: approximately 50%
effect on untransformed Coker 312 control plants [3]: dead
callus growth ([4]; media with 1.0 and 2.0 mM glyphosate): very little callus growth
embryos showing callus initiation ([4]; medium with 0.5 mM glyphosate): about half of the embryos
resistant callus initiation of infected embryos [5]: some embryos initiated resistant callus
plants killed ([6]; glyphosate on its own, 10-15 leaf stage, 200 L ha^-1): 1 out of 16 plants
% Visual Injury Parent elite stiff stalk inbred [7, 12]: 100%
Fresh Weight (g) Parent elite stiff stalk inbred ([7]; applied two weeks after planting, fresh shoots 2 weeks after treatment, untreated 76.4 g): 1.0 g
% Visual Injury Heterozygous GAT-HRA [8, 12]: 10%
Fresh Weight (g) Heterozygous GAT-HRA ([8]; applied two weeks after planting, fresh shoots 2 weeks after treatment, untreated 98.8 g): 97.4 g

O=C(O)CNCP(=O)(O)O [glyphosate (ROUNDUP ®)]
Control (%) ([6]; Trial 1: glyphosate (ROUNDUP) 0.5 L/ha): 12%
Control (%) [9]: 50%

O=C(O)CNCP(=O)(O)O [glyphosate (SCAT ®)]
Control (%) [10]: 94%
Control (%) [11]: 34%
